Data from patent US20230139171A1 (SITA Information Networking Computing UK Limited, priority 2019, published 2023).

Assays:
Type in all cases: cell-based
human TLR8 = biological target: T1, human TLR8 (Homo sapiens, UniProt Q9NR97); assay: TLR8 inhibition reporter assay (HEK-Blue cells, SEAP reporter, R848 stimulation); conditions: HEK-Blue cells overexpressing human TLR8, SEAP reporter, R848 15.9 μM; read-out: TLR8 IC50
T1 construct: host or cells: HEK-Blue cells
T1 sequence (Q9NR97 27-1041): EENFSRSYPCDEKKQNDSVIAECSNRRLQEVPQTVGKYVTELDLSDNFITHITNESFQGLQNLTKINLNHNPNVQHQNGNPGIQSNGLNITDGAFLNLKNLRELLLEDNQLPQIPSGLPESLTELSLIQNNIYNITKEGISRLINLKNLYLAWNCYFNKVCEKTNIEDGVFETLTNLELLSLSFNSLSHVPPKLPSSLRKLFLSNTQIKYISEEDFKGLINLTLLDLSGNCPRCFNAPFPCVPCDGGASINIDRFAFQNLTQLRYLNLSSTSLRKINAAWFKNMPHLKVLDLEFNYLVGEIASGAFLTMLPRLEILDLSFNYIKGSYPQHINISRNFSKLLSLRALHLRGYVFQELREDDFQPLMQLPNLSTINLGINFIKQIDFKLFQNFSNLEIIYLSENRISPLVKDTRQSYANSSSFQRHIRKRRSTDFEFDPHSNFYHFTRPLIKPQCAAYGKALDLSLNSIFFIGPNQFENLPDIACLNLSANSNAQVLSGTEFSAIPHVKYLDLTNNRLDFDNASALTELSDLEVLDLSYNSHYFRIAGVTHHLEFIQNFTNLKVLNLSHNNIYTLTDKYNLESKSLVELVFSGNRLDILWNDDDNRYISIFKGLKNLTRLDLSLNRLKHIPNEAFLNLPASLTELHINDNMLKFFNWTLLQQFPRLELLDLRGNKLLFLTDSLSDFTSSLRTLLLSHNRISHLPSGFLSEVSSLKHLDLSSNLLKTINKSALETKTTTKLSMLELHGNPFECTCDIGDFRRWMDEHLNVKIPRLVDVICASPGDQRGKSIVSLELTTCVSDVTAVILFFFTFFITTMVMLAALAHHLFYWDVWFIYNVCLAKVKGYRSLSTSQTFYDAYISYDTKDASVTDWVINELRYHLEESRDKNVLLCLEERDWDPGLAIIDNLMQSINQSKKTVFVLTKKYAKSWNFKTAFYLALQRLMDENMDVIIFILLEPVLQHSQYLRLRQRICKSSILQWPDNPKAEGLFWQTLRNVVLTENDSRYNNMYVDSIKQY
How it was run: (§1)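 Human TLR7/8/9 HEK-Blue reporter lines; dose range 0.05 nM–50 μM; 30 min RT preincubation; stimulus gardiquimod 7.5 μM / R848 15.9 μM / ODN2006 5 nM respectively; 22 h, 37 °C; SEAP detected colorimetrically.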

human TLR9 = biological target: T2, human TLR9 (Homo sapiens, UniProt Q9NR96); assay: TLR9 inhibition reporter assay (HEK-Blue cells, SEAP reporter, ODN2006 stimulation); conditions: HEK-Blue cells overexpressing human TLR9, SEAP reporter, ODN2006 5 nM
T2 construct: host or cells: HEK-Blue cells
T2 sequence (Q9NR96 26-1032): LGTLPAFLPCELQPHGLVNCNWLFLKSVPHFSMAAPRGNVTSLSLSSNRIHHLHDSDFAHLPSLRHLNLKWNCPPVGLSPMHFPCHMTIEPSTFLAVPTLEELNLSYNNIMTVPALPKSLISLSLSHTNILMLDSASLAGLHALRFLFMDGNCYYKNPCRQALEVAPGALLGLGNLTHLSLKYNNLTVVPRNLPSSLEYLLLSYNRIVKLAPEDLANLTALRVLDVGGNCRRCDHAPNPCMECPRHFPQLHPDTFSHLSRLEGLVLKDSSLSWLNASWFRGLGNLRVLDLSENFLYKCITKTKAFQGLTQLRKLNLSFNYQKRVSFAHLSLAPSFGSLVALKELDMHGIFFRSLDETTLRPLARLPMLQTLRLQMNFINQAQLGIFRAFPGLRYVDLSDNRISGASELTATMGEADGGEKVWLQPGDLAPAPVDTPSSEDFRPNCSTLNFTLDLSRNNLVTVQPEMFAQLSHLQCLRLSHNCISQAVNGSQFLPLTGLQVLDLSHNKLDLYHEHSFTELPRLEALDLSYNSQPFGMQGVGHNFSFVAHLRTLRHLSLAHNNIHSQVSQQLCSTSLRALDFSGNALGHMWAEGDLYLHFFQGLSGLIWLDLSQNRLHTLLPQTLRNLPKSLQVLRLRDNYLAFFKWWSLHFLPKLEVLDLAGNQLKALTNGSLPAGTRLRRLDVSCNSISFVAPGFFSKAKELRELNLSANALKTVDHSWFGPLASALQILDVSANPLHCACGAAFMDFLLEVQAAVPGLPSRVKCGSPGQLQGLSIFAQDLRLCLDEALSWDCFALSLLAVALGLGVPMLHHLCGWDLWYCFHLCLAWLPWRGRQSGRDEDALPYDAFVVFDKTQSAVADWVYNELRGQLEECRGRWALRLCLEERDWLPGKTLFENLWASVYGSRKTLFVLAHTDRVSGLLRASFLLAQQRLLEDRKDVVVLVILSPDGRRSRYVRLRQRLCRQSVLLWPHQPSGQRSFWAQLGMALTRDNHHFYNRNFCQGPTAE
How it was run: as §1

human TLR7 = biological target: T3, human TLR7 (Homo sapiens, UniProt Q9NYK1); assay: TLR7 inhibition reporter assay (HEK-Blue cells, SEAP reporter, gardiquimod stimulation); conditions: HEK-Blue cells overexpressing human TLR7, SEAP reporter, gardiquimod 7.5 μM; read-out: TLR7 IC50
T3 construct: host or cells: HEK-Blue cells
T3 sequence (Q9NYK1 27-1049): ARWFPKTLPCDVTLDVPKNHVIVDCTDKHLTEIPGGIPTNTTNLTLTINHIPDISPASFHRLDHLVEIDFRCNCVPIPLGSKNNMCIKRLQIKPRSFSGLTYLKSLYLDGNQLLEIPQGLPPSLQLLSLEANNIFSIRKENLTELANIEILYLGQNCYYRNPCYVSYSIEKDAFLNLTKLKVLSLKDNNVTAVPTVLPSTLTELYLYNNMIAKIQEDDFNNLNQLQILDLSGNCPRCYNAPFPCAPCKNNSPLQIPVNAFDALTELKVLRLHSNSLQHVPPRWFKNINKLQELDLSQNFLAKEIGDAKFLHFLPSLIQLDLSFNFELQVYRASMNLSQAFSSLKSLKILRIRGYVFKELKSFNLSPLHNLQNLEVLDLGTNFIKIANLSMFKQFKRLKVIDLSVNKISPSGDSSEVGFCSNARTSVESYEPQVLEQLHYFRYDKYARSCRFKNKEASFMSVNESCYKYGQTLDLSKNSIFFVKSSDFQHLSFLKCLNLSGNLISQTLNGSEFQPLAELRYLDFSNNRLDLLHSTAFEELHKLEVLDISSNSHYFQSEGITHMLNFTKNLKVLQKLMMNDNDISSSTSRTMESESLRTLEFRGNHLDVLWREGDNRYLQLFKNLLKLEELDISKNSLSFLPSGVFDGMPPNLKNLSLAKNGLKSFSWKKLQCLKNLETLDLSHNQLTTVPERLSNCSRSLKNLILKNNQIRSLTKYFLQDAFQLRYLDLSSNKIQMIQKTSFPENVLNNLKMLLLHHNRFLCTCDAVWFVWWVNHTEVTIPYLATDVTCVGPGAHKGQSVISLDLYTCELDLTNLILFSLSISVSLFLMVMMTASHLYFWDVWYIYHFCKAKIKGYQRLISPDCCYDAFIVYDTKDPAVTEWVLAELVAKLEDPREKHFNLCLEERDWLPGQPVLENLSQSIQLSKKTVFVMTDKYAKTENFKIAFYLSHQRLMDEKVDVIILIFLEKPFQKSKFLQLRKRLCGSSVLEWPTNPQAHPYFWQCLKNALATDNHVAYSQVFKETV
How it was run: as §1

Compound | IC50 (human TLR8) [nM] | IC50 (human TLR9) [µM] | IC50 (human TLR7) [nM]
Cc1c(-c2[nH]c3sc(N4CCN(CC(C)(C)O)C[C@H]4C)nc3c2C(C)C)cn2ncnc2c1C [Example 325, (R)-1-(4-(5-(7,8-dimethyl-[1,2,4]triazolo[1,5-a]pyridin-6-yl)-6-isopropyl-4H-pyrrolo[3,2-d]thiazol-2-yl)-3-methylpiperazin-1-yl)-2-methylpropan-2-ol] | 0.19 | > 50 | 19
CNCC(=O)N1CCN(c2nc3c(C(C)C)c(-c4cn5ncnc5c(C)c4C)[nH]c3s2)[C@H](C)C1 [Example 326, (R)-1-(4-(5-(7,8-dimethyl-[1,2,4]triazolo[1,5-a]pyridin-6-yl)-6-isopropyl-4H-pyrrolo[3,2-d]thiazol-2-yl)-3-methylpiperazin-1-yl)-2-(methylamino)ethan-1-one] | 7.97 | 17.6 | 5.42
Cc1c(-c2[nH]c3sc(N4C[C@@H](C)N(C5CCOCC5)C[C@@H]4C)nc3c2C(C)C)cn2ncnc2c1C [Example 329, 2-((2S,5R)-2,5-dimethyl-4-(tetrahydro-2H-pyran-4-yl)piperazin-1-yl)-5-(7,8-dimethyl-[1,2,4]triazolo[1,5-a]pyridin-6-yl)-6-isopropyl-4H-pyrrolo[3,2-d]thiazole] | 60.3 | 14.7 | 414
Cc1c(-c2[nH]c3sc(N4C[C@@H](C)N(C(C)C)C[C@@H]4C)nc3c2C(C)C)cn2ncnc2c1C [Example 330, 5-(7,8-dimethyl-[1,2,4]triazolo[1,5-a]pyridin-6-yl)-6-isopropyl-2-((2S,5R)-4-isopropyl-2,5-dimethylpiperazin-1-yl)-4H-pyrrolo[3,2-d] thiazole] | 1.5 | 11.4 | 8.34
Cc1c(-c2[nH]c3sc(N4C[C@@H](C)N(CC5CC5)C[C@@H]4C)nc3c2C(C)C)cn2ncnc2c1C [Example 332, 2-((2S,5R)-4-(cyclopropylmethyl)-2,5-dimethylpiperazin-1-yl)-5-(7,8-dimethyl-[1,2,4]triazolo[1,5-a]pyridin-6-yl)-6-isopropyl-4H-pyrrolo[3,2-d]thiazole] | 1.91 | 10.2 | 16.9

Now from value to compound:

IC50 (human TLR8) [nM] | IC50 (human TLR9) [µM] | IC50 (human TLR7) [nM] | Compound
7.11 | 15.8 | 7.5 | Cc1c(-c2[nH]c3sc(N4CCN(C(=O)CN(C)C)C[C@H]4C)nc3c2C(C)C)cn2ncnc2c1C [Example 327, (R)-1-(4-(5-(7,8-dimethyl-[1,2,4]triazolo[1,5-a]pyridin-6-yl)-6-isopropyl-4H-pyrrolo[3,2-d]thiazol-2-yl)-3-methylpiperazin-1-yl)-2-(dimethylamino)ethan-1-one]
12.8 | 18.8 | 12.9 | Cc1c(-c2[nH]c3sc(N4C[C@@H](C)N(C5COC5)C[C@@H]4C)nc3c2C(C)C)cn2ncnc2c1C [Example 328, 2-((2S,5R)-2,5-dimethyl-4-(oxetan-3-yl)piperazin-1-yl)-5-(7,8-dimethyl-[1,2,4]triazolo[1,5-a]pyridin-6-yl)-6-isopropyl-4H-pyrrolo[3,2-d]thiazole]
0.49 | 6.31 | 4.29 | CCN1C[C@H](C)N(c2nc3c(C(C)C)c(-c4cn5ncnc5c(C)c4C)[nH]c3s2)C[C@H]1C [Example 331, 5-(7,8-dimethyl-[1,2,4]triazolo[1,5-a]pyridin-6-yl)-2-((2S,5R)-4-ethyl-2,5-dimethylpiperazin-1-yl)-6-isopropyl-4H-pyrrolo[3,2-d]thiazole]
2.19 | 37.4 | 34.9 | Cc1c(-c2[nH]c3sc(N4C[C@@H](C)N(C5CCC5)C[C@@H]4C)nc3c2C(C)C)cn2ncnc2c1C [Example 333, 2-((2S,5R)-4-cyclobutyl-2,5-dimethylpiperazin-1-yl)-5-(7,8-dimethyl-[1,2,4]triazolo[1,5-a]pyridin-6-yl)-6-isopropyl-4H-pyrrolo[3,2-d]thiazole]
3.19 | 4.83 | 13.6 | Cc1c(-c2[nH]c3sc(N4C[C@@H](C)N(C(C)C)C[C@@H]4C)nc3c2C(C)C)cn2ncnc2c1C [Example 334, 5-(7,8-dimethyl-[1,2,4]triazolo[1,5-a]pyridin-6-yl)-6-isopropyl-2-((2S,5R)-4-isopropyl-2,5-dimethylpiperazin-1-yl)-4H-pyrrolo[3,2-d]thiazole]
39.7 | 38.1 | 13.5 | CNC(=O)CN1C[C@H](C)N(c2nc3c(C(C)C)c(-c4cn5ncnc5c(C)c4C)[nH]c3s2)C[C@H]1C [Example 336, 2-((2R,5S)-4-(5-(7,8-dimethyl-[1,2,4]triazolo[1,5-a]pyridin-6-yl)-6-isopropyl-4H-pyrrolo[3,2-d]thiazol-2-yl)-2,5-dimethylpiperazin-1-yl)-N-methylacetamide]
